Experimental findings from patent US20210347728A1, “4,5-DIHYDROXY-2-(4-METHYLBENZYL)ISOPHTHALONITRILE SOLVATES AND CRYSTALLINE FORMS THEREOF” (Orion Corporation, priority 2018, published 2021) are described below.

The data set is described as follows: Stability and conversion of crystalline forms with relative humidity. It counts as physicochemical. To be noted: humidity range not specified.

Regarding `Cc1ccc(Cc2c(C#N)cc(O)c(O)c2C#N)cc1` [Form II monohydrate, 4,5-dihydroxy-2-(4-methylbenzyl)isophthalonitrile monohydrate], the “stability of the crystalline form with humidity” value is “stable within a reasonable humidity range”.
